US12448655B2, “Antibiotic susceptibility of microorganisms and related methods and systems” (CALIFORNIA INSTITUTE OF TECHNOLOGY, priority 2017, dated 2025)

Tests used:
Escherichia coli = assay: Minimum inhibitory concentrations (MICs) of Enterobacteriaceae clinical isolates; type: cell-based
Source text: (§1) Clinical isolates referenced, minimum inhibitory concentrations (MICs), and categorical susceptibility based on CLSI breakpoints The below list of organisms are examples of clinically-relevant susceptible and resistant Enterobacteriaceae clinical isolates. Minimum inhibitory concentrations (MICs) are provided in μg/mL for the antibiotics listed.
(§2) Isolates, growth conditions, and antibiotic exposure conditions. 25 de-identified clinical isolates were obtained from the UCLA Clinical Microbiology Laboratory (CML) and the CDC's Enterobacteriaceae Carbapenem Breakpoint panel. In the case of isolates obtained from the UCLA CML, MICs were determined as described previously. Genotypic testing of the two Ec and two Kp isolates selected for their lack of known β-lactamase genes was performed by UCLA CML using a previously published assay and separately at the Keck School of Medicine of USC using the FDA-approved Cepheid Xpert® Carba-R test. Whole genome sequencing of the single Ebs isolate selected for its lack of known resistance genes was performed by the CDC [3]. All isolates were stored as glycerol stocks at −80° C. Glycerol stocks were streaked onto Trypticase Soy Agar with 5% sheep's blood (Becton Dickinson, Franklin Lakes, NJ, USA) and grown overnight at 37° C. Prior to experiments, a small clump of cells was resuspended in 2 mL Brain Heart Infusion Broth (BHI, Becton Dickinson) at 37° C.+5% CO2 with 500 rpm shaking for 2 to 4 h until visibly turbid. OD600 of the cultures was then measured, and working cultures prepared at an OD600 of 0.01-0.07 and grown for 50-145 min at 37° C.+5% CO2 with 500 rpm. Working cultures were then diluted 10× into control and treated aliquots for antibiotic exposure. For validation experiments, antibiotic exposure was performed in 100 μL volumes consisting of 80 μL Mueller Hinton II Broth (Becton Dickinson), 5 μL nuclease-free H2O (NF—H2O), 5 μL 20× antibiotic stock solution, and 10 μL of working culture. In control aliquots, antibiotic stock solution was replaced with NF—H2O. For filtration experiments, antibiotic exposure was performed in 100 μL volumes consisting of 65 μL Mueller Hinton II Broth (Becton Dickinson), 21 μL nuclease-free H2O (NF—H2O), 4 μL 25× antibiotic stock solution, and 10 μL of working culture. In control aliquots, antibiotic stock solution was replaced with NF—H2O.

Klebsiella pneumoniae = assay: as above; type: cell-based
Source text: as §1, §2

Neisseria gonorrhoeae = assay: Minimum inhibitory concentrations (MICs) of Neisseria gonorrhoeae clinical isolates; type: cell-based
Protocol: Isolates and agar-dilution MIC testing. Isolates were provided by the University of Washington Neisseria Reference Laboratory and the Centers for Disease Control (CDC) Antibiotic Resistance Isolate Bank Neisseria gonorrhoeae panel (SINuca-Table). MICs of the CDC AR Isolate Bank are reported by the CDC [10], and MIC of all other isolates were determined by agar dilution according to the Clinical and Laboratory Standards Institute (CLSI) guidelines.

E. coli isolates [1] = assay: Quantification of DNA release following antibiotic exposure, filtration and ddPCR (Example 27); type: cell-based, Escherichia coli; parameters: dose or concentration left out as unconfirmed; settings: 15 min exposure, 0.22 μm filtration, ddPCR
Protocol: Filtration experiments. Filtration experiments were performed using E. coli isolates exposed to 0.5 μg/mL ertapenem for 15 min. Immediately following exposure, cultures were passed through 0.22 μm, 1.5 mL cellulose acetate centrifuge tube filters (Corning Costar Spin-X, Corning, NY) by adding 50 μL of sample to the filter and centrifuging for 4 minutes at 1000 ref. DNA was extracted from both the feed and filtrate using QuickExtract DNA Extraction Solution (Lucigen, Middleton, WI, USA). Samples were diluted 10× into extraction buffer and extracted according to manufacturer instructions. The concentration of the single copy E. coli uidA gene was then quantified in the feed and filtrate extractions. The percentage of E. coli DNA in the filtrate was calculated as the filtrate concentration divided by the feed concentration. Droplet digital PCR (ddPCR) was performed using QX200 ddPCR Supermix for EvaGreen (BioRad). 10% of the final reaction volume was template. Published primers targeting the uidA gene in E. coli were used at a final concentration of 500 nM. Cycling conditions consisted of 5.0 min at 95° C., followed by 40 cycles of 95° C. for 30 sec, 60° C. for 30 sec, and 72° C. for 30 sec., with final dye stabilization steps of 4° C. for 5.0 min followed by 90° C. for 5.0 min.
To investigate the mechanism of pol-aAST, experiments were performed to separate free NAs from NAs contained within structurally intact cells or associated with cell debris. Susceptible and resistant clinical isolates were exposed to β-lactams for 15 min, then filtered through […] filters to remove cells from free NAs. NAs in the sample and eluate were then quantified using droplet digital PCR (ddPCR).

E. coli isolates [2] = assay: pol-aAST, comparison of LAMP and qPCR amplification (Example 26); type: cell-based, Escherichia coli; settings: 0.5 μg/mL ertapenem for 15 min
Protocol: Comparison of amplification methods. In order to compare amplification using LAMP and PCR, E. coli isolates were exposed to 0.5 μg/mL ertapenem for 15 min. Samples were then transferred directly into either PCR or LAMP mix on ice. Amplification was started immediately. Quantitative PCR (qPCR) was performed on a Roche LightCycler 96 using SsoFast EvaGreen Supermix (BioRad, Hercules, CA, USA). 10 μL reactions were used. 10% of the final reaction volume was template. Published primers were used at a final concentration of 500 nM. Cycling conditions consisted of 3.0 min at 95° C., followed by 35 cycles of 95° C. for 10 sec, 60° C. for 10 sec, and 72° C. for 15 sec. Fluorescence was measured using the SYBR Green channel after each 72° C. extension step. LAMP was performed on a BioRad CFX96 using the following conditions: 10 μL reaction volume containing 1× Isothermal Reaction Buffer II (NEB), 5 mM MgSO4 (NEB), 1.4 mM dNTPs (NEB), 320 U/mL Bst 3.0 (NEB), and 2 μM Syto-9 (Thermo Fisher). 10% of the reaction volume was template. Primer sequences and concentrations have been described previously. Cycling conditions consisted of 2.0 min at 12° C. (while lid was heating), followed by 120 cycles of 70° C. for 10 sec. Fluorescence was measured using the SYBR Green channel every 10 sec (after each cycle).
To test this, pol-aAST is performed in this example using LAMP, and quantitative PCR (qPCR) (FIG. 48). […]

Ng isolates = assay: Percentage of cell lysis due to enhancer alone (Example 33); type: cell-based, Neisseria gonorrhoeae; settings: Ng clinical isolates (12 for BAC); no antibiotic
Protocol: Enhancer use. Working cultures of Ng isolates were prepared as described in “Ng culture preparation.” Initial exposure was performed by incubating 100 μL control and treated samples at 37° C. in PCR tube strips on a BioRad C1000 Thermal Cycler. Treated samples consisted of 75 μL MHB, 5 μL NaHCO3 (100 mM), 5 μL DNase I (2 U/μL), 5 μL PEN or CRO (20 μg/mL), and […] working Ng isolate culture. ABX were replaced with NF—H2O in control samples. After 15 min of incubation, samples were vortexed and quick-spun, and aliquots of all samples were transferred to the enhancement step as described below. After the enhancement step, 5 or 10 μL of all samples were extracted by diluting 10× in QuickExtract DNA Extraction Solution (Lucigen) and heating for 6 min at 65° C. followed by 4 min at 98° C. on a BioRad C1000 Thermal Cycler. All sample handling following ABX exposure was performed using a multichannel pipette; qPCR and calculation of % accessibility was performed as described above.
Osmotic and autolytic enhancing steps were performed in 100 μL volumes. The osmotic enhancing step consisted of 89.75 μL NF—H2O, 4.75 μL DNase I (2 U/μL), 0.5 μL CaCl (100 mM, 0.2-μM filtered), and 5 μL initial exposure samples. […]

**Q.** With `CC1(C)S[C@@H]2[C@H](NC(=O)[C@H](N)c3ccccc3)C(=O)N2[C@H]1C(=O)O` [AMP, ampicillin] as the compound, how does the “Antibiotic MICs” value (Escherichia coli; isolate Ec_1) read?
**A.** Its value is 4 µg/mL.

**Q.** And the “Antibiotic MICs” value (Escherichia coli; isolate Ec_2)?
**A.** Its value is “<=2 μg/mL”.

**Q.** And the “Antibiotic MICs” value (Escherichia coli; isolate Ec_3)?
**A.** The value was “<=2 μg/mL”.

**Q.** And the “Antibiotic MICs” value (Escherichia coli; isolate Ec_4)?
**A.** Its value is “<=2 μg/mL”.

**Q.** What about the “Antibiotic MICs” value (Escherichia coli; isolate Ec_39) of the same compound?
**A.** Its value is “>=32 μg/mL”.

**Q.** And the “Antibiotic MICs” value (Escherichia coli; isolate Ec_40)?
**A.** The value was “>=32 μg/mL”.

**Q.** What about the “Antibiotic MICs” value (Klebsiella pneumoniae; isolate Kp_7) of the same compound?
**A.** The value was >32 µg/mL.

**Q.** And the “Antibiotic MICs” value (Klebsiella pneumoniae; isolate Kp_8)?
**A.** The value was >32 µg/mL.

**Q.** For `C=CC1=C(C(=O)O)N2C(=O)[C@@H](NC(=O)/C(=N\OCC(=O)O)c3csc(N)n3)[C@H]2SC1` [CFM, cefixime], which “Antibiotic MICs” value (Neisseria gonorrhoeae; isolate ng_1) is on record?
**A.** Its value is ≤0.015 µg/mL.

**Q.** And the “Antibiotic MICs” value (Neisseria gonorrhoeae; isolate ng_2)?
**A.** The value was ≤0.015 µg/mL.

**Q.** And the “Antibiotic MICs” value (Neisseria gonorrhoeae; isolate ng_3)?
**A.** Its value is ≤0.015 µg/mL.

**Q.** And the “Antibiotic MICs” value (Neisseria gonorrhoeae; isolate ng_4)?
**A.** The value was 0.060 µg/mL.

**Q.** And the “Antibiotic MICs” value (Neisseria gonorrhoeae; isolate ng_5)?
**A.** The value was 0.030 µg/mL.

**Q.** What about the “Antibiotic MICs” value (Neisseria gonorrhoeae; isolate ng_6) of the same compound?
**A.** Its value is 0.015 µg/mL.

**Q.** What about the “Antibiotic MICs” value (Neisseria gonorrhoeae; isolate ng_12) of the same compound?
**A.** The value was 0.030 µg/mL.

**Q.** And the “Antibiotic MICs” value (Neisseria gonorrhoeae; isolate ng_15)?
**A.** Its value is ≤0.015 µg/mL.

**Q.** What about the “Antibiotic MICs” value (Neisseria gonorrhoeae; isolate ng_16) of the same compound?
**A.** The value was ≤0.015 µg/mL.

**Q.** What about the “Antibiotic MICs” value (Neisseria gonorrhoeae; isolate ng_17) of the same compound?
**A.** The value was ≤0.015 µg/mL.

**Q.** What about the “Antibiotic MICs” value (Neisseria gonorrhoeae; isolate ng_18) of the same compound?
**A.** Its value is 0.060 µg/mL.

**Q.** And the “Antibiotic MICs” value (Neisseria gonorrhoeae; isolate ng_19)?
**A.** Its value is 0.030 µg/mL.

**Q.** And the “Antibiotic MICs” value (Neisseria gonorrhoeae; isolate ng_20)?
**A.** The value was ≤0.015 µg/mL.

**Q.** And the “Antibiotic MICs” value (Neisseria gonorrhoeae; isolate ng_30)?
**A.** The value was 1.000 µg/mL.

**Q.** And the “Antibiotic MICs” value (Neisseria gonorrhoeae; isolate ng_41)?
**A.** The value was 0.250 µg/mL.

**Q.** What about the “Antibiotic MICs” value (Neisseria gonorrhoeae; isolate ng_44) of the same compound?
**A.** Its value is ≤0.015 µg/mL.

**Q.** Which results are given for `C[C@@H](O)[C@H]1C(=O)N2C(C(=O)O)=C(S[C@@H]3CN[C@H](C(=O)Nc4cccc(C(=O)O)c4)C3)[C@H](C)[C@H]12` [ETP, ertapenem]?
**A.** Antibiotic MICs (Escherichia coli; isolate Ec_1): <=.5 μg/mL; Antibiotic MICs (Escherichia coli; isolate Ec_2): <=.5 μg/mL; Antibiotic MICs (Escherichia coli; isolate Ec_3): <=.5 μg/mL; Antibiotic MICs (Escherichia coli; isolate Ec_4): <=.5 μg/mL; Antibiotic MICs (Escherichia coli; isolate Ec_38): >4 µg/mL; Antibiotic MICs (Escherichia coli; isolate Ec_39): 2 µg/mL; Antibiotic MICs (Escherichia coli; isolate Ec_40): 2 µg/mL; Antibiotic MICs (Escherichia coli; isolate Ec_41): 2 µg/mL; Antibiotic MICs (Klebsiella pneumoniae; isolate Kp_1): <=.5 μg/mL; Antibiotic MICs (Klebsiella pneumoniae; isolate Kp_2): <=.5 μg/mL; Antibiotic MICs (Klebsiella pneumoniae; isolate Kp_7): >8 µg/mL; Antibiotic MICs (Klebsiella pneumoniae; isolate Kp_8): >8 µg/mL; average percentage of DNA released from susceptible isolates (E. coli isolates [1]): 15%; time-to-positive difference (TTPD) between control and treated aliquots, LAMP (E. coli isolates [2]; susceptible E. coli isolate): 1.02 min; difference in Cq between control and treated samples, qPCR (E. coli isolates [2]; two susceptible and two resistant E. coli isolates): none of which showed a statistically significant difference in Cq

**Q.** `C[C@@H](O)[C@H]1C(=O)N2C(C(=O)O)=C(S[C@@H]3CN[C@H](C(=O)N(C)C)C3)[C@H](C)[C@H]12` [meropenem] was tested. Which “average percentage of DNA released from susceptible isolates” value (E. coli isolates [1]) did it give?
**A.** The value was 21%.

**Q.** benzalkonium chloride [BAC] was tested. Which “average percentage lysis by 5-min incubation with the enhancer alone” value (Ng isolates) did it give?
**A.** Its value is 91.6%.
